{"source": "patent US6451807B1", "about": "“Methods of treating sexual dysfunction in an individual suffering from a retinal disease, class 1 congestive heart failure, or myocardial infarction using a PDE5 inhibitor” (Lilly Icos, LLC., priority 1999, dated 2002)", "key": {"human PDE5": {"target": "T1, human PDE5 (Homo sapiens, UniProt O76074)", "T1 construct": "made in house; host or cells: Saccharomyces cerevisiae protease-deficient strain BJ2-54 (ATCC 74465)", "assay": "PDE5 enzyme inhibition, IC50 determination", "format": "biochemical"}, "Bovine PDE6": {"target": "T2, Bovine PDE6 (Bos taurus, UniProt P11541+P23439)", "T2 construct": "Hypotonic extracts were prepared by suspending isolated ROS; tissue Dr. N. Virmaux, INSERM U338, Strasbourg; host or cells: bovine retina, rod outer segment hypotonic extract", "T2 sequence (P11541 2-856 limits assumed)": "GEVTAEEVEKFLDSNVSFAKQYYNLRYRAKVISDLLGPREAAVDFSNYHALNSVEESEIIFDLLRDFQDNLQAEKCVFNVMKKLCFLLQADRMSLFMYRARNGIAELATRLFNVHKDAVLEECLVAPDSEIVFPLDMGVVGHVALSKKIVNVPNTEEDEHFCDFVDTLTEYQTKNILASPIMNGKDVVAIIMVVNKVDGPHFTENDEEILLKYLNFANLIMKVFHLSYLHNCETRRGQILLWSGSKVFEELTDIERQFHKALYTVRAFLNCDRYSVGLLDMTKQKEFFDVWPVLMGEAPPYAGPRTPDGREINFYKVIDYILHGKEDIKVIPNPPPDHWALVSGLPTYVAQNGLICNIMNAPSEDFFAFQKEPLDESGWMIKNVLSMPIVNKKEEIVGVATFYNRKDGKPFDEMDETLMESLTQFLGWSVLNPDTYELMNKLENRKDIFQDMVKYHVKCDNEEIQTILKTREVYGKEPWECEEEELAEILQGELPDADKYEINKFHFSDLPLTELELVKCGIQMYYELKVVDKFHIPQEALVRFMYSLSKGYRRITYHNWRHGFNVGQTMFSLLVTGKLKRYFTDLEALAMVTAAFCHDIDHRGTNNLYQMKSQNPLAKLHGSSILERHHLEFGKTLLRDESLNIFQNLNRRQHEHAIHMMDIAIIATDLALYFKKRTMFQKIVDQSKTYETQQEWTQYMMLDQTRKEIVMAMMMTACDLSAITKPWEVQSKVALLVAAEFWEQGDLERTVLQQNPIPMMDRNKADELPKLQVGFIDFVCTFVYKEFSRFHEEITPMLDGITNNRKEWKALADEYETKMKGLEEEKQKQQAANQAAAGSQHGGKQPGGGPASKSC", "T2 sequence (P23439 2-850 limits assumed)": "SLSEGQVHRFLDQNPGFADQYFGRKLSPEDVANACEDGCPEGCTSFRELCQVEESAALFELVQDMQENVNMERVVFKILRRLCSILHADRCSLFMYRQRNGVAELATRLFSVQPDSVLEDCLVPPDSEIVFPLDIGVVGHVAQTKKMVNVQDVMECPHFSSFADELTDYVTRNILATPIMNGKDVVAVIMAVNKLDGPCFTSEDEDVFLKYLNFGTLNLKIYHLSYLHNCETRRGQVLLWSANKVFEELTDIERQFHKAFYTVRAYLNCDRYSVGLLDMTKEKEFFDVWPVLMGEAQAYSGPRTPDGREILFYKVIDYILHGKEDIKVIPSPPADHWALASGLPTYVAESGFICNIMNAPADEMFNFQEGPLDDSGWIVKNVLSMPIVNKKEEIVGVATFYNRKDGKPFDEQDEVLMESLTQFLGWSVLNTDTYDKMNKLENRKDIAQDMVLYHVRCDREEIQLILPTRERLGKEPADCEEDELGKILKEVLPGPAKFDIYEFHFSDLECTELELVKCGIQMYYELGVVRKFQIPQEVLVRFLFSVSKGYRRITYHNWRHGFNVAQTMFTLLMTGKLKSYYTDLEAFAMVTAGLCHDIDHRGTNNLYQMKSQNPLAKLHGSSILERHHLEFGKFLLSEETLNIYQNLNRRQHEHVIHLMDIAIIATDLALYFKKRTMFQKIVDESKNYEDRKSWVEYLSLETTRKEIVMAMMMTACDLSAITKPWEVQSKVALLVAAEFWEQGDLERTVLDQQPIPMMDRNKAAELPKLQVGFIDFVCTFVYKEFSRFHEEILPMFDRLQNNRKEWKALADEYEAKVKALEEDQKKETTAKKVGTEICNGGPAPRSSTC", "T2 sequence (P04972 1-87 partner)": "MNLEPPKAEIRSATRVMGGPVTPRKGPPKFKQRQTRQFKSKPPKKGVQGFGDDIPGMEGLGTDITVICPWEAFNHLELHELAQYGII", "assay": "PDE6 enzyme inhibition, IC50 determination", "format": "biochemical", "conditions": "for PDE6/PDE5: ratio of IC50 versus PDE6 to IC50 versus PDE5", "procedure": "Bovine PDE6 was supplied by Dr. N. Virmaux, INSERM U338, Strasbourg. Bovine retinas were prepared as described by Virmaux et al., FEBS Letters, 12(6), pp. 325-328 (1971) and see also, A. Sitaramayya et al., Exp. Eye Res., 25, pp. 163-169 (1977). Briefly, unless stated otherwise, all operations were done in the cold and in dim red light. Eyes were kept in the cold and in the dark for up to four hours after slaughtering.\nPreparation of bovine retinal outer segment (ROS) basically followed procedures described by Schichi et al., J. Biol. Chem., 224:529 (1969). In a typical experiment, 35 bovine retinas were ground in a mortar with 35 mL 0.066 M phosphate buffer, pH 7.0, made up to 40% with sucrose, followed by homogenization in a Potter homogenizer (20 up and down strokes). The suspension was centrifuged at 25,000×g for 20 minutes. The pellet was homogenized in 7.5 mL 0.006 M phosphate buffer (40% in sucrose), and carefully layered under 7.5 mL of phosphate buffer (containing no sucrose). Centrifugation was conducted in a swing-out rotor at 45,000×g for 20 minutes, and produced a pellet which is black at the bottom, and also a red band at the interface 0.066 M. phosphate—40% sucrose/0.066 M phosphate (crude ROS). The red material at the interface was removed, diluted with phosphate buffer, spun down to a pellet, and redistributed in buffered 40% sucrose as described above. This procedure was repeated 2 or 3 times until no pellet was formed. The purified ROS was washed in phosphate buffer and finally spun down to a pellet at 25,000×g for 20 minutes. All materials were then kept frozen until used.\nHypotonic extracts were prepared by suspending isolated ROS in 10 mM Tris-Cl pH 7.5, 1 mM EDTA, and 1 mM dithioerythritol, followed by centrifugation at 100,000×g for 30 minutes.\nThe preparation was reported to have a specific activity of about 35 nmoles cGMP hydrolyzed per minute per milligram protein.\nBiophys. Acta, 384:430 (1975)."}, "PDE1": {"tested_on": "PDE1", "conditions": "package insert; cited from earlier work"}, "PDE2": {"target": "PDE2 (Homo sapiens, UniProt O00408)", "sequence (O00408 whole entry)": "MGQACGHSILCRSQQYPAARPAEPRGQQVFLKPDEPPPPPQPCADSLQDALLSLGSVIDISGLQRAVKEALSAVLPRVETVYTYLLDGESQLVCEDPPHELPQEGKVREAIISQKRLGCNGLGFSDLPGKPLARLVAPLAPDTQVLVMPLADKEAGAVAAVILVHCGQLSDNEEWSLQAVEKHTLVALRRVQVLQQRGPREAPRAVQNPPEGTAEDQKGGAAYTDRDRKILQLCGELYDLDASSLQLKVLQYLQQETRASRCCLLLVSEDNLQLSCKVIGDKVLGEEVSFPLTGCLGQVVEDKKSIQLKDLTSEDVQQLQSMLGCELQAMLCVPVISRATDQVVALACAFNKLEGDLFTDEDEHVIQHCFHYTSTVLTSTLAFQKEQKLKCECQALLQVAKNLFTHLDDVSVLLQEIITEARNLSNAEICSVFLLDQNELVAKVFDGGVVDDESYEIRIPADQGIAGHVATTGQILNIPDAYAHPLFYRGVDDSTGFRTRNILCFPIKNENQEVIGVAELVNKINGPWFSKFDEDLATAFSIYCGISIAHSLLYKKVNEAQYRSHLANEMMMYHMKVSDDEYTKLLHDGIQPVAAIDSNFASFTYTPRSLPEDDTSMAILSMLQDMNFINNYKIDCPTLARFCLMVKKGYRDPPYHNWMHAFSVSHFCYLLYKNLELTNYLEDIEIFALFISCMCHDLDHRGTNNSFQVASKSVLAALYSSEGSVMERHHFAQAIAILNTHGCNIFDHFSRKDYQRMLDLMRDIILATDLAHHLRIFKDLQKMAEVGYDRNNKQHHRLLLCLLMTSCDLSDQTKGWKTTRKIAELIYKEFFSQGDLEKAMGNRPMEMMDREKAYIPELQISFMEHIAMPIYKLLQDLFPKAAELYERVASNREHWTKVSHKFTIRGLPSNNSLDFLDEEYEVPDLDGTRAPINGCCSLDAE", "conditions": "package insert; cited from earlier work"}, "PDE3": {"tested_on": "PDE3", "conditions": "package insert; cited from earlier work"}, "PDE4": {"tested_on": "PDE4", "conditions": "package insert; cited from earlier work"}, "[1]": {"tested_on": "patients taking organic nitrates", "conditions": "in combination with organic nitrates; cited from earlier work"}}}
{"smiles": "CC1NC(=O)C2Cc3c([nH]c4ccccc34)C(c3ccc4c(c3)OCO4)N2C1=O", "note": "(centres unmarked) [Compound 4]", "values": [{"measurement": "IC50", "setting": "human PDE5", "value": 5, "unit": "nM"}, {"measurement": "IC50", "setting": "Bovine PDE6", "value": 729, "unit": "nM"}, {"measurement": "PDE6/PDE5", "setting": "Bovine PDE6", "value": 146}]}
{"smiles": "O=C1C2Cc3c([nH]c4ccccc34)C(c3ccc4c(c3)OCO4)N2C(=O)CN1Cc1cccc(NS(=O)(=O)C(F)(F)F)c1", "note": "(centres unmarked) [Compound 3]", "values": [{"measurement": "IC50", "setting": "human PDE5", "value": 2, "unit": "nM"}, {"measurement": "IC50", "setting": "Bovine PDE6", "value": 420, "unit": "nM"}, {"measurement": "PDE6/PDE5", "setting": "Bovine PDE6", "value": 210}]}
{"smiles": "O=C1C2Cc3c([nH]c4ccccc34)C(c3ccc4c(c3)OCO4)N2C(=O)CN1Cc1ccc(NS(=O)(=O)C(F)(F)F)cc1", "note": "(centres unmarked) [Compound 1]", "values": [{"measurement": "IC50", "setting": "human PDE5", "value": 5, "unit": "nM"}, {"measurement": "IC50", "setting": "Bovine PDE6", "value": 663, "unit": "nM"}, {"measurement": "PDE6/PDE5", "setting": "Bovine PDE6", "value": 133}]}
{"smiles": "CCCc1nn(C)c2c(=O)[nH]c(-c3cc(S(=O)(=O)N4CCN(C)CC4)ccc3OCC)nc12", "note": "[sildenafil]", "values": [{"measurement": "more potent inhibitor of PDE5 than PDE1", "setting": "PDE1", "value": "greater than 80 fold"}, {"measurement": "more potent inhibitor of PDE5 than PDE2", "setting": "PDE2", "value": "greater than 1,000 fold"}, {"measurement": "more potent inhibitor of PDE5 than PDE3", "setting": "PDE3", "value": "greater than 1,000 fold"}, {"measurement": "more potent inhibitor of PDE5 than PDE4", "setting": "PDE4", "value": "greater than 1,000 fold"}, {"measurement": "effect on hypotensive effects of nitrates", "setting": "[1]", "value": "potentiates the hypotensive effects of nitrates"}]}
